How the values were obtained:
H1299 p53 R273H = assay: Cell Proliferation Assay (CellTiter-Glo, CTG), H1299 p53 R273H (NClH1299-inducible p53 R273H); format: cell-based; details: Homo sapiens, NCI-H1299, 120 h, NClH1299-inducible p53 R273H cells, 5 days, CellTiter-Glo
In short: (§1)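 Cells seeded at 250-500 per well and exposed to compound for 5 days. Viability read by CellTiter-Glo luminescence after 10 min at room temperature; IC50 calculated. H1299 lines carry Tet-One inducible p53 mutant constructs introduced by lentiviral transduction.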

[1] = target: T1, p53 Y220C mutant protein (amino acid residues 94-293) (Homo sapiens, UniProt P04637, Y220C); assay: Surface Plasmon Resonance (SPR) assay, Kd_kinetic; format: binding; details: SPR; p53 Y220C; read-out: SPR P53 Y220C KD kinetic
T1 construct: p53 Y220C mutant protein (amino acid residues 94-293)
T1 sequence (P04637 94-293, stated change not applied): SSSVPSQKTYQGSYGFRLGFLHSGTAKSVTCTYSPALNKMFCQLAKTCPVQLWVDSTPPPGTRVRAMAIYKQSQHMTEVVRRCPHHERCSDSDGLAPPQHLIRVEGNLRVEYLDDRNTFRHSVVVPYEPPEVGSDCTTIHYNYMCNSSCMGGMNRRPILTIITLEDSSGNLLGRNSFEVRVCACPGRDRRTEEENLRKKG
In short: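 Binding measured by SPR on a Biacore 8K in running buffer of 50 mM Tris pH 7.5, 100 mM NaCl, 1 mM DTT, 0.01% Brij35, 0.05% Tween-20, 1% DMSO.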

NUGC3 p53 Y220C = assay: Cell Proliferation Assay (CellTiter-Glo, CTG), NUGC3 p53 Y220C; format: cell-based; details: Homo sapiens, NUGC-3, 120 h, NUGC3 cells, 5 days, CellTiter-Glo
In short: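 NClH1299 lines stably transduced with Tet-inducible p53 Y220C or R273H, plus NUGC3, were treated with compound for 5 days at 250-500 cells/well. IC50 derived from CellTiter-Glo luminescent signal after 10 min room-temperature incubation.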

p53 Y220C = p53 Y220C (Homo sapiens, UniProt P04637, Y220C); assay: Luciferase Reporter Assay (Luc), p53 response element, NClH1299 cells with inducible p53 Y220C; format: cell-based; details: luciferase reporter, NClH1299 inducible p53 Y220C, 6 hour; for AC50: read-out: Luc P53 Y220C AC50
In short: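 Luminescence readout (One-Glo, 5 min shaking at RT, read at once) after 6 h compound exposure; cells pre-induced 24 h with 0.5 ug/mL doxycycline, 5,000/well.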

H1299 p53 Y220C = assay: Cell Proliferation Assay (CellTiter-Glo, CTG), H1299 p53 Y220C (NClH1299-inducible p53 Y220C); format: cell-based; details: Homo sapiens, NCI-H1299, 120 h, NClH1299-inducible p53 Y220C cells, 5 days, CellTiter-Glo
In short: as §1

Compound	IC50 (H1299 p53 R273H) [nM]	Kd [1] [nM]	IC50 (NUGC3 p53 Y220C) [nM]	AC50 (p53 Y220C) [nM]	Emax (p53 Y220C) [%]	IC50 (H1299 p53 Y220C) [nM]
COc1cc(C(=O)NCC(C)(C)O)ccc1NCC#Cc1cc2c(N[C@@H]3CCNC[C@@H]3F)cccn2c1SC(F)(F)F [Example 408]	5000 to 8000	< 10	< 750	< 750	80 to 90	< 750
CN1CC[C@@H](Nc2cccn3c(SC(F)(F)F)c(C#CCNc4cc(C(=O)NCC5(O)CC5)ccc4OC4COC4)cc23)[C@@H](F)C1 [Example 409]	≥ 10000	< 10	< 750	< 750	> 90	< 750
COc1ccc(C(=O)N[C@@H](C)[C@@H](C)O)cc1NCC#Cc1cc2c(N[C@@H]3CCN(C)C[C@@H]3F)cccn2c1SC(F)(F)F [Example 410]	≥ 10000	< 10	< 750	< 750	> 90	< 750
COc1cc([S@+](C)[O-])ccc1NCC#Cc1cc2c(N[C@@H]3CCN(C)C[C@@H]3F)cccn2c1SC(F)(F)F [Example 411]	≥ 10000	< 10	< 750	< 750	> 90	< 750
C[C@@H](O)CNC(=O)c1ccc(NCC#Cc2cc3c(N[C@@H]4CCN(C)C[C@@H]4F)cccn3c2SC(F)(F)F)cc1 [Example 414]	≥ 10000	< 10	< 750	< 750	> 90	< 750
COc1cc(P(C)(C)=O)ccc1NCC#Cc1cn2c(N[C@@H]3CCN(C)C[C@@H]3F)cccc2c1SC(F)F [Example 415]	≥ 10000	< 10	750 to 1500	< 750	80 to 90	750 to 1500
COc1cc(C(=O)NC[C@@H](C)O)ccc1NCC#Cc1cc2c(N[C@@H]3CCN(C)C[C@@H]3F)cccn2c1SC(F)(F)F [Example 416, 4-{[3-(8-{[(3S,4R)-3-fluoro-1-methylpiperidin-4-yl]amino}-3-[(trifluoromethyl)sulfanyl]indolizin-2-yl)prop-2-yn-1-yl]amino}-N-[(2R)-2-hydroxypropyl]-3-methoxybenzamide]	5000 to 8000	< 10	< 750	< 750	80 to 90	< 750
COc1ccc(C(=O)NCC2(O)CC2)cc1NCC#Cc1cc2c(N[C@@H]3CCN(C)C[C@@H]3F)cccn2c1SC(F)(F)F [Example 417]	≥ 10000	< 10	< 750	< 750	> 90	< 750
CN1CC[C@@H](Nc2cccn3c(SC(F)(F)F)c(C#CCNc4ccc(S(C)(=O)=O)cc4)cc23)[C@@H](F)C1 [Example 418]	≥ 10000	< 10	< 750	< 750	> 90	< 750
COc1cc(C(=O)NCC2(O)CC2)ccc1NCC#Cc1cc2c(N[C@@H]3CCN(C)C[C@@H]3F)cccn2c1SC(F)(F)F [Example 419, 4-{[3-(8-{[(3S,4R)-3-fluoro-1-methylpiperidin-4-yl]amino}-3-[(trifluoromethyl)sulfanyl]indolizin-2-yl)prop-2-yn-1-yl]amino}-N-[(1-hydroxycyclopropyl)methyl]-3-methoxybenzamide]	5000 to 8000	< 10	< 750	< 750	> 90	< 750
CN1CC[C@@H](Nc2cccn3c(SC(F)(F)F)c(C#CCNc4ccc(P(C)(C)=O)nc4)cc23)[C@@H](F)C1 [Example 420, 2-(3-{[6-(dimethylphosphoryl)pyridin-3-yl]amino}prop-1-yn-1-yl)-N-[(3S,4R)-3-fluoro-1-methylpiperidin-4-yl]-3-[(trifluoromethyl)sulfanyl]indolizin-8-amine]	≥ 10000	< 10	< 750	< 750	80 to 90	< 750
COc1cc(C(=O)NC[C@@H](O)CO)ccc1NCC#Cc1cc2c(N[C@@H]3CCN(C)C[C@@H]3F)cccn2c1SC(F)(F)F [Example 421]	≥ 10000	< 10	< 750	< 750	> 90	< 750
COc1cc(C(=O)NC[C@H](O)CO)ccc1NCC#Cc1cc2c(N[C@@H]3CCN(C)C[C@@H]3F)cccn2c1SC(F)(F)F [Example 422]	≥ 10000	< 10	< 750	< 750	> 90	< 750
COc1cc([S@@+](C)[O-])ccc1NCC#Cc1cc2c(N[C@@H]3CCN(C)C[C@@H]3F)cccn2c1SC(F)(F)F [Example 423]	8000 to 10000	< 10	< 750	< 750	> 90	< 750
COc1ccc(C(=O)NCC(C)(C)O)cc1NCC#Cc1cc2c(N[C@@H]3CCN(C)C[C@@H]3F)cccn2c1SC(F)(F)F [Example 424]	≥ 10000	< 10	< 750	< 750	> 90	< 750
CN1CC[C@@H](Nc2cccn3c(SC(F)(F)F)c(C#CCNc4ccc(C(=O)N[C@H]5C[C@H](O)C5)cc4)cc23)[C@@H](F)C1 [Example 426]	8000 to 10000	< 10	< 750	< 750	> 90	< 750
CN1CC[C@@H](Nc2cccn3c(SC(F)(F)F)c(C#CCNc4ccc(C(=O)NCC5(O)CC5)cc4)cc23)[C@@H](F)C1 [Example 427]	≥ 10000	< 10	< 750	< 750	> 90	< 750
CN1CC[C@@H](Nc2cccn3c(SC(F)(F)F)c(C#CCNc4ccc(P(C)(C)=O)cn4)cc23)[C@@H](F)C1 [Example 428, 2-(3-{[5-(dimethylphosphoryl)pyridin-2-yl]amino}prop-1-yn-1-yl)-N-[(3S,4R)-3-fluoro-1-methylpiperidin-4-yl]-3-[(trifluoromethyl)sulfanyl]indolizin-8-amine]	≥ 10000	< 10	< 750	< 750	80 to 90	< 750
CN1CC[C@@H](Nc2cccn3c(SC(F)(F)F)c(C#CCNc4ccc(P(C)(C)=O)nn4)cc23)[C@@H](F)C1 [Example 429, 2-(3-{[6-(dimethylphosphoryl)pyridazin-3-yl]amino}prop-1-yn-1-yl)-N-[(3S,4R)-3-fluoro-1-methylpiperidin-4-yl]-3-[(trifluoromethyl)sulfanyl]indolizin-8-amine]	≥ 10000	< 10	< 750	< 750	80 to 90	< 750

— patent publication US20260374766A1, “METHODS FOR TREATING CANCER” (Antares Therapeutics, Inc., priority 2022, published 2026)
